Laboratory results from patent US10695433B2, “Pyrrolobenzodiazepine-antibody conjugates” (MEDIMMUNE LIMITED, priority 2012, dated 2020).

System: K562 human chronic myeloid leukaemia cells
Assay: K562 assay (MTT cytotoxicity of released compounds)
Assay type: cell-based
Details: drug for 1 hour or 96 hours, MTT readout
Procedure: K562 human chronic myeloid leukaemia cells were maintained in RPM1 1640 medium supplemented with 10% fetal calf serum and 2 mM glutamine at 37° C. in a humidified atmosphere containing 5% CO2 and were incubated with a specified dose of drug for 1 hour or 96 hours at 37° C. in the dark. The incubation was terminated by centrifugation (5 min, 300 g) and the cells were washed once with drug-free medium. Following the appropriate drug treatment, the cells were transferred to 96-well microtiter plates (10^4 cells per well, 8 wells per sample). Plates were then kept in the dark at 37° C. in a humidified atmosphere containing 5% CO2. The assay is based on the ability of viable cells to reduce a yellow soluble tetrazolium salt, 3-(4,5-dimethylthiazol-2-yl)-2,5-diphenyl-2H-tetrazolium bromide (MTT, Aldrich-Sigma), to an insoluble purple formazan precipitate. Following incubation of the plates for 4 days (to allow control cells to increase in number by approximately 10 fold), 20 μL of MTT solution (5 mg/mL in phosphate-buffered saline) was added to each well and the plates further incubated for 5 h. The plates were then centrifuged for 5 min at 300 g and the bulk of the medium pipetted from the cell pellet leaving 10-20 μL per well. […] The optical density was then read at a wavelength of 550 nm on a Titertek Multiscan ELISA plate reader, and a dose-response curve was constructed.

SMILES: COc1cc2c(cc1OCCCCCOc1cc3c(cc1OC)C(=O)N1C=C(C)C[C@H]1C=N3)N=C[C@@H]1CC(C)=CN1C2=O [RelE]
- IC50: 0.425 nM
